From ChEMBL document CHEMBL5303573, “Mapping human microbiome drug metabolism by gut bacteria and their genes” (Nature, 2019)

Assays:
[1] = The drug is tested on Collinsella aerofaciens strain: ATCC25986 for biotransformation. The drug concentrations were measured before and after a 12-h incubation by liquid-chromatography-coupled mass spectrometry (LC–MS); conditions: 2 µM
[2] = The drug is tested on Eubacterium ventriosum strain: ATCC27560 for biotransformation. The drug concentrations were measured before and after a 12-h incubation by liquid-chromatography-coupled mass spectrometry (LC–MS); format: ADME; set-up: dose 2 uM, timepoint 0 vs 12 hours; conditions: 2 µM
[3] = The drug is tested on Bacteroides dorei strain: DSM17855 for biotransformation. The drug concentrations were measured before and after a 12-h incubation by liquid-chromatography-coupled mass spectrometry (LC–MS); conditions: phocaeicola dorei, 2 µM
[4] = The drug is tested on Escherichia coli strain: BW25113 for biotransformation. The drug concentrations were measured before and after a 12-h incubation by liquid-chromatography-coupled mass spectrometry (LC–MS); conditions: 2 µM
[5] = The drug is tested on Ruminococcus lactaris strain: ATCC29176 for biotransformation. The drug concentrations were measured before and after a 12-h incubation by liquid-chromatography-coupled mass spectrometry (LC–MS); conditions: 2 µM
[6] = The drug is tested on Coprococcus comes strain: ATCC27758 for biotransformation. The drug concentrations were measured before and after a 12-h incubation by liquid-chromatography-coupled mass spectrometry (LC–MS); format: ADME; set-up: dose 2 uM, timepoint 0 vs 12 hours; conditions: 2 µM
[7] = The drug is tested on Bacteroides pectinophilus strain: ATCC43243 for biotransformation. The drug concentrations were measured before and after a 12-h incubation by liquid-chromatography-coupled mass spectrometry (LC–MS); conditions: 2 µM
[8] = The drug is tested on Blautia hansenii strain: DSM20583 for biotransformation. The drug concentrations were measured before and after a 12-h incubation by liquid-chromatography-coupled mass spectrometry (LC–MS); conditions: 2 µM
[9] = The drug is tested on Bacteroides fragilis strain: HMW610 for biotransformation. The drug concentrations were measured before and after a 12-h incubation by liquid-chromatography-coupled mass spectrometry (LC–MS); conditions: 2 µM
[10] = The drug is tested on Eubacterium hallii strain: DSM3353 for biotransformation. The drug concentrations were measured before and after a 12-h incubation by liquid-chromatography-coupled mass spectrometry (LC–MS); conditions: anaerobutyricum hallii, 2 µM
[11] = The drug is tested on Bacteroides cellulosilyticus strain: DSM14838 for biotransformation. The drug concentrations were measured before and after a 12-h incubation by liquid-chromatography-coupled mass spectrometry (LC–MS); conditions: 2 µM
[12] = enterocloster bolteae, 12 h, 2 µM
Description: The drug is tested on Clostridium bolteae strain: ATCCBAA-613 for biotransformation. The drug concentrations were measured before and after a 12-h incubation by liquid-chromatography-coupled mass spectrometry (LC–MS)

[13] = The drug is tested on Subdoligranulum variabile strain: DSM15176 for biotransformation. The drug concentrations were measured before and after a 12-h incubation by liquid-chromatography-coupled mass spectrometry (LC–MS); conditions: 2 µM
[14] = segatella copri, 12 h, 2 µM
Description: The drug is tested on Prevotella copri strain: DSM18205 for biotransformation. The drug concentrations were measured before and after a 12-h incubation by liquid-chromatography-coupled mass spectrometry (LC–MS)

[15] = The drug is tested on Clostridium scindens strain: ATCC35704 for biotransformation. The drug concentrations were measured before and after a 12-h incubation by liquid-chromatography-coupled mass spectrometry (LC–MS); conditions: 2 µM
[16] = The drug is tested on Collinsella intestinalis strain: DSM13280 for biotransformation. The drug concentrations were measured before and after a 12-h incubation by liquid-chromatography-coupled mass spectrometry (LC–MS); conditions: 2 µM
[17] = The drug is tested on Eubacterium rectale strain: ATCC33656 for biotransformation. The drug concentrations were measured before and after a 12-h incubation by liquid-chromatography-coupled mass spectrometry (LC–MS); conditions: agathobacter rectalis, 2 µM
[18] = The drug is tested on Bacteroides fragilis strain: ATCC43859 for biotransformation. The drug concentrations were measured before and after a 12-h incubation by liquid-chromatography-coupled mass spectrometry (LC–MS); conditions: 2 µM
[19] = The drug is tested on Odoribacter splanchnicus strain: fecal isolate for biotransformation. The drug concentrations were measured before and after a 12-h incubation by liquid-chromatography-coupled mass spectrometry (LC–MS); conditions: 2 µM
[20] = The drug is tested on Enterococcus faecalis strain: V583 for biotransformation. The drug concentrations were measured before and after a 12-h incubation by liquid-chromatography-coupled mass spectrometry (LC–MS); conditions: 2 µM

SMILES | Bacterial Biotransformation [1] | Bacterial Biotransformation [2] | Bacterial Biotransformation [3] | Bacterial Biotransformation [4] | Bacterial Biotransformation [5] | Bacterial Biotransformation [6] | Bacterial Biotransformation [7] | Bacterial Biotransformation [8] | Bacterial Biotransformation [9] | Bacterial Biotransformation [10] | Bacterial Biotransformation [11] | Bacterial Biotransformation [12] | Bacterial Biotransformation [13] | Bacterial Biotransformation [14] | Bacterial Biotransformation [15] | Bacterial Biotransformation [16] | Bacterial Biotransformation [17] | Bacterial Biotransformation [18] | Bacterial Biotransformation [19] | Bacterial Biotransformation [20]
Cc1cc2c(cc1S(N)(=O)=O)S(=O)(=O)CCC2 | Compound NOT metabolized | Compound NOT metabolized | Compound NOT metabolized | Compound NOT metabolized | Compound NOT metabolized | Compound NOT metabolized | Compound NOT metabolized | Compound NOT metabolized | Compound NOT metabolized | Compound NOT metabolized | Compound NOT metabolized | Compound NOT metabolized | Compound NOT metabolized | Compound NOT metabolized | Compound NOT metabolized | Compound NOT metabolized | Compound NOT metabolized | Compound NOT metabolized | Compound NOT metabolized | –
O=c1[nH]c2ccccc2n1CCCN1CCC(n2c(=O)[nH]c3cc(Cl)ccc32)CC1 [DOMPERIDONE] | Compound NOT metabolized | Compound NOT metabolized | Compound NOT metabolized | Compound NOT metabolized | Compound NOT metabolized | Compound NOT metabolized | Compound NOT metabolized | Compound NOT metabolized | Compound NOT metabolized | Compound NOT metabolized | Compound NOT metabolized | Compound NOT metabolized | Compound NOT metabolized | Compound NOT metabolized | – | Compound NOT metabolized | Compound NOT metabolized | Compound NOT metabolized | Compound NOT metabolized | Compound NOT metabolized
CN1CCN(C(=O)O[C@H]2c3nccnc3C(=O)N2c2ccc(Cl)cn2)CC1 [ESZOPICLONE] | Compound metabolized | Compound NOT metabolized | Compound NOT metabolized | Compound NOT metabolized | Compound NOT metabolized | Compound NOT metabolized | Compound NOT metabolized | Compound NOT metabolized | Compound NOT metabolized | Compound metabolized | Compound metabolized | Compound metabolized | Compound NOT metabolized | – | Compound NOT metabolized | Compound NOT metabolized | Compound NOT metabolized | Compound NOT metabolized | Compound metabolized | Compound NOT metabolized
O=C1[C@H](CC[C@H](O)c2ccc(F)cc2)[C@@H](c2ccc(O)cc2)N1c1ccc(F)cc1 [EZETIMIBE] | Compound NOT metabolized | Compound metabolized | Compound NOT metabolized | Compound NOT metabolized | Compound NOT metabolized | Compound NOT metabolized | Compound NOT metabolized | Compound NOT metabolized | Compound NOT metabolized | Compound NOT metabolized | Compound NOT metabolized | Compound NOT metabolized | Compound NOT metabolized | Compound NOT metabolized | Compound NOT metabolized | Compound NOT metabolized | Compound NOT metabolized | Compound NOT metabolized | Compound NOT metabolized | Compound NOT metabolized
COC1=C(OC)C(=O)C(CCCCCCCCCCO)=C(C)C1=O [IDEBENONE] | Compound NOT metabolized | Compound NOT metabolized | Compound NOT metabolized | Compound NOT metabolized | Compound metabolized | Compound NOT metabolized | Compound NOT metabolized | Compound NOT metabolized | Compound metabolized | Compound metabolized | Compound NOT metabolized | Compound metabolized | Compound metabolized | Compound NOT metabolized | Compound metabolized | – | Compound NOT metabolized | Compound metabolized | Compound metabolized | Compound NOT metabolized
CC(CCc1ccccc1)NCC(O)c1ccc(O)c(C(N)=O)c1 (stereo not given) [LABETALOL] | Compound NOT metabolized | Compound NOT metabolized | Compound NOT metabolized | Compound NOT metabolized | Compound NOT metabolized | Compound NOT metabolized | Compound NOT metabolized | Compound NOT metabolized | Compound NOT metabolized | Compound NOT metabolized | Compound NOT metabolized | Compound NOT metabolized | Compound NOT metabolized | Compound NOT metabolized | – | Compound NOT metabolized | Compound NOT metabolized | Compound NOT metabolized | Compound NOT metabolized | Compound NOT metabolized
CN1CCN(C2=Nc3ccccc3Oc3ccc(Cl)cc32)CC1.O=C(O)CCC(=O)O [LOXAPINE SUCCINATE] | – | Compound NOT metabolized | Compound NOT metabolized | Compound NOT metabolized | Compound NOT metabolized | Compound NOT metabolized | Compound NOT metabolized | Compound NOT metabolized | Compound NOT metabolized | Compound NOT metabolized | Compound NOT metabolized | Compound NOT metabolized | Compound NOT metabolized | Compound NOT metabolized | – | Compound NOT metabolized | Compound NOT metabolized | Compound NOT metabolized | Compound NOT metabolized | Compound NOT metabolized
CC(=O)CCCCn1c(=O)c2c(ncn2C)n(C)c1=O [PENTOXIFYLLINE] | Compound NOT metabolized | Compound NOT metabolized | Compound NOT metabolized | Compound NOT metabolized | Compound NOT metabolized | Compound NOT metabolized | – | Compound NOT metabolized | Compound NOT metabolized | Compound NOT metabolized | Compound NOT metabolized | – | Compound NOT metabolized | Compound NOT metabolized | – | Compound NOT metabolized | Compound NOT metabolized | Compound NOT metabolized | Compound NOT metabolized | Compound NOT metabolized
